Test results from PubChem BioAssay (NCI).
Values joined by “and” are separate entries in the source; they are usually repeats but may differ in a detail not shown here. Identical values can stand only once.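 Five concentrations, 48 hours, 96-well plates. Abbreviation: GI50, concentration required for 50% inhibition of growth. TGI: total growth inhibition.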

Tests used:
Experiment in all cases: growth of human tumour cells (NCI), 48 h
786-0 renal = system: 786-0 renal
SF-539 CNS = system: SF-539 CNS
K-562 leukemia = system: K-562 leukemia
SK-OV-3 ovarian = system: SK-OV-3 ovarian
MOLT-4 leukemia = system: MOLT-4 leukemia
SK-MEL-2 melanoma = system: SK-MEL-2 melanoma
NCI-H226 lung = system: NCI-H226 lung
U251 CNS = system: U251 CNS
SNB-19 CNS = system: SNB-19 CNS
SN12C renal = system: SN12C renal
SF-295 CNS = system: SF-295 CNS
SK-MEL-5 melanoma = system: SK-MEL-5 melanoma
ACHN renal = system: ACHN renal
UACC-257 melanoma = system: UACC-257 melanoma
A549 NSCLC = system: A549 NSCLC
NCI-H522 lung = system: NCI-H522 lung
UACC-62 melanoma = system: UACC-62 melanoma
HL-60(TB) leukemia = system: HL-60(TB) leukemia
HOP-62 NSCLC = system: HOP-62 NSCLC
NCI-H23 lung = system: NCI-H23 lung
NCI-H460 lung = system: NCI-H460 lung
SW-620 colon = system: SW-620 colon
RXF 393 renal = system: RXF 393 renal
IGROV1 ovarian = system: IGROV1 ovarian
DMS 273 small cell lung = system: DMS 273 small cell lung
LOX IMVI melanoma = system: LOX IMVI melanoma
OVCAR-3 ovarian = system: OVCAR-3 ovarian
HCT-15 colon = system: HCT-15 colon
OVCAR-8 ovarian = system: OVCAR-8 ovarian
M14 melanoma = system: M14 melanoma
RPMI-8226 leukemia = system: RPMI-8226 leukemia
TK-10 renal = system: TK-10 renal
XF 498 CNS = system: XF 498 CNS
SK-MEL-28 melanoma = system: SK-MEL-28 melanoma
CCRF-CEM leukemia = system: CCRF-CEM leukemia
EKVX NSCLC = system: EKVX NSCLC
COLO 205 colon = system: COLO 205 colon
UO-31 renal = system: UO-31 renal
DMS 114 small cell lung = system: DMS 114 small cell lung
DLD-1 colon = system: DLD-1 colon
M19-MEL melanoma = system: M19-MEL melanoma
MALME-3M melanoma = system: MALME-3M melanoma
HOP-18 NSCLC = system: HOP-18 NSCLC
HCT-116 colon = system: HCT-116 colon
KM12 colon = system: KM12 colon
SF-268 CNS = system: SF-268 CNS
SNB-75 CNS = system: SNB-75 CNS
HOP-92 NSCLC = system: HOP-92 NSCLC
KM20L2 colon = system: KM20L2 colon
HT29 colon = system: HT29 colon
SR leukemia = system: SR leukemia
LXFL 529 NSCLC = system: LXFL 529 NSCLC
OVCAR-4 ovarian = system: OVCAR-4 ovarian
CAKI-1 renal = system: CAKI-1 renal
HCC-2998 colon = system: HCC-2998 colon

Compound: O=c1ccc2ccc(O)c3c4c(=O)ccc5ccc(O)c(c1c23)c54
- TGI (786-0 renal): 4.81 µM
- TGI (SF-539 CNS): 3.2 µM
- TGI (K-562 leukemia): 5.59 µM
- TGI (SK-OV-3 ovarian): 8.61 µM
- TGI (MOLT-4 leukemia): 8.53 µM
- TGI (SK-MEL-2 melanoma): 3.34 µM
- TGI (NCI-H226 lung): 5.28 µM
- TGI (U251 CNS): 3.3 µM
- TGI (SNB-19 CNS): 4.85 µM
- TGI (SN12C renal): 4.37 µM
- TGI (SF-295 CNS): 9.29 µM
- TGI (SK-MEL-5 melanoma): 2.59 µM
- TGI (ACHN renal): 6.75 µM
- TGI (UACC-257 melanoma): 6.71 µM
- TGI (A549 NSCLC): 12.2 µM
- TGI (NCI-H522 lung): 3.08 µM
- TGI (UACC-62 melanoma): 1.65 µM
- TGI (HL-60(TB) leukemia): 3.64 µM
- TGI (HOP-62 NSCLC): 4.86 µM
- TGI (NCI-H23 lung): 3.46 µM
- TGI (NCI-H460 lung): 11.6 µM
- TGI (SW-620 colon): 5.08 µM
- TGI (RXF 393 renal): 2.42 µM
- TGI (IGROV1 ovarian): 3.64 µM
- TGI (DMS 273 small cell lung): 3.97 µM
- TGI (LOX IMVI melanoma): 2.63 µM
- TGI (OVCAR-3 ovarian): 11.7 µM
- TGI (HCT-15 colon): 2.69 µM
- TGI (OVCAR-8 ovarian): 10.7 µM
- TGI (M14 melanoma): 3.22 µM
- TGI (RPMI-8226 leukemia): 9.12 µM
- TGI (TK-10 renal): 5.86 µM
- TGI (XF 498 CNS): 3.27 µM
- TGI (SK-MEL-28 melanoma): 5.28 µM
- TGI (CCRF-CEM leukemia): 3.77 µM
- TGI (EKVX NSCLC): 8.46 µM
- TGI (COLO 205 colon): 3.73 µM
- TGI (UO-31 renal): 3.71 µM
- TGI (DMS 114 small cell lung): 3.63 µM
- TGI (DLD-1 colon): 3.13 µM
- TGI (M19-MEL melanoma): 2.16 µM
- TGI (MALME-3M melanoma): 1.83 µM
- TGI (HOP-18 NSCLC): 3.72 µM
- TGI (HCT-116 colon): 2.83 µM
- TGI (KM12 colon): 3.43 µM

Compound: COc1cc(C2c3cc4c(cc3[C@@H](NCCCN3CCCC3=O)C3COC(=O)[C@H]23)OCO4)cc(OC)c1O (some centres undefined)
- TGI (786-0 renal): 60.4 µM and > 17.5 µM
- GI50 (SF-539 CNS): 3.65 µM
- TGI (SF-539 CNS): 21.4 µM
- TGI (K-562 leukemia): > 100 µM
- TGI (SK-OV-3 ovarian): 39.4 µM
- TGI (MOLT-4 leukemia): > 100 µM
- TGI (SK-MEL-2 melanoma): > 100 µM
- GI50 (NCI-H226 lung): 3.38 µM and 1.35 µM
- TGI (NCI-H226 lung): 23 µM and 9.53 µM
- TGI (U251 CNS): 63 µM and > 17.5 µM
- GI50 (SNB-19 CNS): 38 µM and > 17.5 µM
- TGI (SNB-19 CNS): > 100 µM
- GI50 (SF-268 CNS): 9.24 µM and 1.58 µM
- TGI (SF-268 CNS): > 100 µM
- TGI (SN12C renal): 80.9 µM and > 17.5 µM
- TGI (SF-295 CNS): > 100 µM
- GI50 (SK-MEL-5 melanoma): 4.21 µM and 0.526 µM
- TGI (SK-MEL-5 melanoma): 33.5 µM and > 17.5 µM
- TGI (ACHN renal): 16.5 µM
- GI50 (A549 NSCLC): 6.23 µM and 1.01 µM
- TGI (A549 NSCLC): 40 µM and > 17.5 µM
- GI50 (NCI-H522 lung): 5.65 µM
- TGI (NCI-H522 lung): 84.3 µM
- TGI (SNB-75 CNS): 6.81 µM
- GI50 (UACC-62 melanoma): 4.03 µM and 0.677 µM
- TGI (UACC-62 melanoma): 26 µM and > 17.5 µM
- TGI (HOP-92 NSCLC): 71.1 µM and > 17.5 µM
- TGI (KM20L2 colon): > 100 µM
- GI50 (HOP-62 NSCLC): 5.45 µM and 0.712 µM
- TGI (HOP-62 NSCLC): 34.3 µM and > 17.5 µM
- TGI (HT29 colon): > 100 µM
- GI50 (NCI-H23 lung): 5.27 µM
- TGI (NCI-H23 lung): 32.2 µM
- GI50 (NCI-H460 lung): 1.54 µM and 0.58 µM
- TGI (NCI-H460 lung): 15.7 µM and > 17.5 µM
- TGI (SW-620 colon): > 100 µM
- TGI (RXF 393 renal): > 100 µM
- TGI (IGROV1 ovarian): > 100 µM
- GI50 (DMS 273 small cell lung): 3.59 µM and 0.476 µM
- TGI (DMS 273 small cell lung): 21.3 µM and > 17.5 µM
- GI50 (LOX IMVI melanoma): 8.13 µM and 0.813 µM
- TGI (LOX IMVI melanoma): 33.7 µM and > 17.5 µM
- TGI (OVCAR-3 ovarian): > 100 µM
- TGI (SR leukemia): > 100 µM
- TGI (HCT-15 colon): > 100 µM
- TGI (OVCAR-8 ovarian): > 100 µM
- TGI (LXFL 529 NSCLC): > 100 µM
- TGI (M14 melanoma): > 100 µM
- GI50 (OVCAR-4 ovarian): > 100 µM
- TGI (OVCAR-4 ovarian): > 100 µM
- TGI (RPMI-8226 leukemia): > 100 µM
- TGI (CAKI-1 renal): > 100 µM
- TGI (TK-10 renal): > 100 µM
- TGI (XF 498 CNS): > 100 µM
- TGI (SK-MEL-28 melanoma): > 100 µM
- TGI (CCRF-CEM leukemia): > 100 µM
- TGI (EKVX NSCLC): > 100 µM
- TGI (COLO 205 colon): > 100 µM
- TGI (UO-31 renal): 43.7 µM and > 17.5 µM
- GI50 (DMS 114 small cell lung): 2.89 µM and 0.701 µM
- TGI (DMS 114 small cell lung): 9.46 µM and > 17.5 µM
- TGI (DLD-1 colon): > 100 µM
- TGI (HCC-2998 colon): 85.7 µM
- TGI (M19-MEL melanoma): > 100 µM
- GI50 (MALME-3M melanoma): 11 µM
- TGI (MALME-3M melanoma): > 100 µM
- TGI (HOP-18 NSCLC): > 100 µM
- TGI (HCT-116 colon): > 100 µM
- TGI (KM12 colon): > 100 µM
